Source: patent publication US6509329B1, “Cyclic diamine compound with 6-membered ring groups” (Kowa Co., Ltd., priority 2001, dated 2003)
Like-named read-outs stand apart in the source and are kept apart here.

System: adhesion of U937 cells to HUVEC stimulated by IL-1β or TNFα
Test: Inhibitory effect on cell adhesion (U937 adhesion to stimulated HUVEC)
Assay type: cell-based
Details: Homo sapiens, compound at 1 μM, fluorescence-labeled U937 adhesion for 1 hour
Procedure: This test was conducted by reference to the method of Ross et al. (J. Biol. Chem., 267, 8537-8543 (1992)). More specifically, after human umbilical venous endothelial cells (HUVEC) were cultured on a 48-well plate to confluent growth, IL−1β or TNFα was added thereto. Upon elapsed time of 5 hours after the addition, U937, which is a human monocytic/histocytic cell fluorescence-labeled with PKH2 (product of Dainippon Pharmaceutical Co., Ltd.), was added in a proportion of 1×10^6 cells per well. After the plate was left at rest at room temperature for 1 hour, unadhered U937 was washed out and lysed in 1% Triton X-100 to measure a remaining fluorescence intensity (excitation wavelength: 480 nm; measuring wavelength: 530 nm). HUVEC and U937 were cultured in EGM-2 (product of Sanko Junyaku K.K.) and 10% FCS-containing RPMI1640, respectively. Each test agent was added to HUVEC upon the addition of IL-1β or TNFα and to U937 24 hours prior to the cell adhesion test. The inhibitory activity was calculated out according to the equation [100−(C−B)/(A−B)×100 (%)], wherein A is the number of U937 cells adhered to HUVEC stimulated by IL−1β or TNFα when no test agent was added, B is the number of U937 cells adhered to HUVEC not stimulated by IL-1β or TNFα when no test agent was added, and C is the number of U937 cells adhered to HUVEC stimulated by ILβ or TNFα when the test agent was added. As control compounds, Test Compound 1 described in Japanese Patent Application Laid-Open No. 9-143075 and dilazep described in Japanese Patent Application Laid-Open No. 11-92382 were simultaneously evaluated.

[1] = HUVEC stimulated by IL-1β for 5 hours, read-out: Percent inhibition (%) of cell adhesion, Stimulation by IL-1β
[2] = HUVEC stimulated by TNFα for 5 hours, read-out: Percent inhibition (%) of cell adhesion, Stimulation by TNFα

Row | Compound | inhibition at 1 µM [1] [%] | inhibition at 1 µM [2] [%]
1 | COc1cc(C(=O)OCCCN2CCCN(CCCOC(=O)c3cc(OC)c(OC)c(OC)c3)CC2)cc(OC)c1OC [Dilazep, dilazep, reference compound] | 0 | 12
2 | COc1cc(-c2cccc(CN3CCCN(Cc4cccc(-c5cc(OC)c(OC)c(OC)c5)c4)CC3)c2)cc(OC)c1OC [Example 4, N,N′-bis[3-(3,4,5-Trimethoxyphenyl)benzyl]-homopiperazine] | 42 | 43
3 | COc1cc(-c2cc(CN3CCN(Cc4ccnc(-c5cc(OC)c(OC)c(OC)c5)c4)CC3)ccn2)cc(OC)c1OC [Example 9, N,N′-bis[[2-(3,4,5-Trimethoxyphenyl)pyridin-4-yl]methyl]piperazine] | 53 | 64
4 | COc1cc(-c2cc(CN3CCCN(Cc4ccnc(-c5cc(OC)c(OC)c(OC)c5)c4)CC3)ccn2)cc(OC)c1OC [Example 10, N,N′-bis[[2-(3,4,5-Trimethoxyphenyl)pyridin-4-yl]methyl]homopiperazine] | 63 | 71
5 | COc1cc(C#Cc2cc(CN3CCN(Cc4ccnc(C#Cc5cc(OC)c(OC)c(OC)c5)c4)CC3)ccn2)cc(OC)c1OC [Example 22, N,N′-bis[[2-(3,4,5-Trimethoxyphenylethynyl)-pyridin-4-yl]methyl]piperazine] | 34 | 50
